{"source": "patent US7262185B2", "about": "“Benzazepine derivative, process for producing the same, and use” (Takeda Chemical Industries Ltd., priority 2001, dated 2007)", "data": [{"compound": "CCCCOCCOc1ccc(-c2ccc3c(c2)C=C(C(=O)Nc2ccc(SCc4nncn4CC(C)C)cc2)CCN3CCC)cc1", "note": "[Compound 32, 7-[4-(2-butoxyethoxy)phenyl]-N-[4-[(4-isobutyl-4H-1,2,4-triazol-3-yl)methylthio]phenyl]-1-propyl-2,3-dihydro-1H-1-benzazepine-4-carboxamide]", "values": [{"measurement": "melting point", "value": "130 to 132", "unit": "°C"}]}, {"compound": "CCCCOCCOc1ccc(-c2ccc3c(c2)C=C(C(=O)Nc2ccc(C(O)c4ncccc4OCCC)cc2)CCN3C(=O)C(F)(F)F)cc1", "note": "(stereo not drawn) [Compound 111, 7-[4-(2-butoxyethoxy)phenyl]-N-[4-[hydroxy(3-propoxypyridin-2-yl)methyl]phenyl]-1-trifluoroacetyl-2,3-dihydro-1H-1-benzazepine-4-carboxamide]", "values": [{"measurement": "melting point", "value": "154 to 157", "unit": "°C"}]}, {"compound": "CCCCOCCOc1ccc(-c2ccc3c(c2)C=C(C(=O)Nc2ccc(/C(Cc4nccn4CCC)=N/O)cc2)CCN3CC(C)C)cc1", "note": "[Compound 450, 7-[4-(2-butoxyethoxy)phenyl]-N-[4-((1E)-N-hydroxy-2-(1-propylimidazol-2-yl)ethaneimidoyl)phenyl]-1-isobutyl-2,3-dihydro-1H-1-benzazepine-4-carboxamide]", "values": [{"measurement": "melting point", "value": "153.5 to 154.5", "unit": "°C"}]}, {"compound": "CCCCOCCOc1ccc(-c2ccc3c(c2)C=C(C(=O)Nc2ccc(/C(Cc4nccn4CCC)=N/OC)cc2)CCN3CC(C)C)cc1", "note": "[Compound 448, 7-[4-(2-butoxyethoxy)phenyl]-1-isobutyl-N-[4-((1E)-N-methoxy-2-(1-propylimidazol-2-yl)ethanimidoyl)phenyl]-2,3-dihydro-1H-1-benzazepine-4-carboxamide]", "values": [{"measurement": "melting point", "value": "159 to 161", "unit": "°C"}]}, {"compound": "CCCCOCCOc1ccc(-c2ccc3c(c2)C=C(C(=O)Nc2ccc([S+]([O-])Cc4nnc(SC)n4CCC)cc2)CCN3CC(C)C)cc1", "note": "(stereo not drawn) [Compound 149, 7-[4-(2-butoxyethoxy)phenyl]-1-isobutyl-N-[4-(5-methylthio-4-propyl-4H-1,2,4-triazol-3-ylmethylsulfinyl)phenyl]-2,3-dihydro-1H-benzazepine-4-carboxamide]", "values": [{"measurement": "melting point", "value": "150 to 152", "unit": "°C"}]}, {"compound": "CCCCOCCOc1ccc(-c2ccc3c(c2)C=C(C(=O)Nc2ccc(C(O)c4cccc[n+]4[O-])c(OC)c2)CCN3)cc1", "note": "(stereo not drawn) [Compound 3, 7-[4-(2-butoxyethoxy)phenyl]-N-[4-[hydroxy(1-oxidopyridin-2-yl)methyl]-3-methoxyphenyl]-2,3-dihydro-1H-1-benzazepine-4-carboxamide]", "values": [{"measurement": "melting point", "value": "116 to 118", "unit": "°C"}]}, {"compound": "CCCCOCCOc1ccc(-c2ccc3c(c2)C=C(C(=O)Nc2ccc([S+]([O-])Cc4nncn4CC(C)C)cc2)CCN3CCC)cc1", "note": "(stereo not drawn) [Compound 33, 7-[4-(2-butoxyethoxy)phenyl]-N-[4-((4-isobutyl-4H-1,2,4-triazol-3-yl)methylsulfinyl]phenyl]-1-propyl-2,3-dihydro-1H-1-benzazepine-4-carboxamide]", "values": [{"measurement": "melting point", "value": "186 to 190 °C (dec.)"}]}, {"compound": "CCCCOCCOc1ccc(-c2ccc3c(c2)C=C(C(=O)Nc2ccc(C(O)c4cc(C)cc[n+]4[O-])cc2)CCN3)cc1", "note": "(stereo not drawn) [Compound 1, 7-[4-(2-butoxyethoxy)phenyl]-N-[4-[hydroxy(4-methyl-1-oxidopyridin-2-yl)methyl]phenyl]-2,3-dihydro-1H-1-benzazepine-4-carboxamide]", "values": [{"measurement": "melting point", "value": "198 to 201 °C (dec.)"}]}, {"compound": "CCCCOCCOc1ccc(-c2ccc3c(c2)C=C(C(=O)Nc2ccc(C(O)c4c(C)ccc[n+]4[O-])cc2)CCN3C(=O)C(F)(F)F)cc1", "note": "(stereo not drawn) [Compound 100, 7-[4-(2-butoxyethoxy)phenyl]-N-[4-[hydroxy(3-methyl-1-oxidopyridin-2-yl)methyl]phenyl]-1-trifluoroacetyl-2,3-dihydro-1H-1-benzazepine-4-carboxamide]", "values": [{"measurement": "melting point", "value": "109 to 112", "unit": "°C"}]}, {"compound": "CCCCOCCOc1ccc(-c2ccc3c(c2)C=C(C(=O)Nc2ccc([S+]([O-])CCc4nncn4CCC)cc2)CCN3CCC)cc1", "note": "(stereo not drawn) [Compound 52, 7-[4-(2-butoxyethoxy)phenyl]-1-propyl-N-[4-[2-(4-propyl-4H-1,2,4-triazol-3-yl)ethylsulfinyl]phenyl]-2,3-dihydro-1H-1-benzazepine-4-carboxamide]", "values": [{"measurement": "melting point", "value": "93 to 101", "unit": "°C"}]}, {"compound": "CCCCOCCOc1ccc(-c2ccc3c(c2)C=C(C(=O)Nc2ccc([C@H](O)c4cccc[n+]4[O-])cc2)CCN3C=O)cc1", "note": "[Compound 77, 7-[4-(2-butoxyethoxy)phenyl]-1-formyl-N-[4-[(S)-hydroxy(1-oxidopyridin-2-yl)methyl]phenyl]-2,3-dihydro-1H-1-benzazepine-4-carboxamide]", "values": [{"measurement": "melting point", "value": "120 to 125", "unit": "°C"}]}, {"compound": "CCCCOCCOc1ccc(-c2ccc3c(c2)C=C(C(=O)Nc2ccc(C[S+]([O-])c4nncn4C)cc2)CCN3CC(C)C)cc1", "note": "(stereo not drawn) [Compound 118, 7-[4-(2-butoxyethoxy)phenyl]-N-[4-(4-methyl-4H-1,2,4-triazol-3-ylsulfinylmethyl)phenyl]-1-isobutyl-2,3-dihydro-1H-1-benzazepine-4-carboxamide]", "values": [{"measurement": "melting point", "value": "87 to 89", "unit": "°C"}]}, {"compound": "CCCCOCCOc1ccc(-c2ccc3c(c2)C=C(C(=O)Nc2ccc4c(c2)nc([S+]([O-])Cc2cncn2CCC)n4C)CCN3CC(C)C)cc1", "note": "(stereo not drawn) [Compound 445, 7-[4-(2-butoxyethoxy)phenyl]-1-isobutyl-N-[1-methyl-2-(((1-propylimidazol-5-yl)methyl)sulfinyl)benzimidazol-5-yl]-2,3-dihydro-1H-1-benzazepine-4-carboxamide]", "values": [{"measurement": "melting point", "value": "149.5 to 151", "unit": "°C"}]}, {"compound": "CCCCOCCOc1ccc(-c2ccc3c(c2)C=C(C(=O)Nc2ccc([C@H](O)c4cccc[n+]4[O-])cc2)CCN3Cc2cc(C)ns2)cc1", "note": "[Compound 92, 7-[4-(2-butoxyethoxy)phenyl]-1-(3-methyl-isothiazol-5-ylmethyl)-N-[4-[(S)-hydroxy(1-oxidopyridin-2-yl)methyl]phenyl]-2,3-dihydro-1H-1-benzazepine-4-carboxamide]", "values": [{"measurement": "melting point", "value": "93 to 96", "unit": "°C"}]}, {"compound": "CCCCOCCOc1ccc(-c2ccc3c(c2)C=C(C(=O)Nc2ccc([S+]([O-])Cc4ncon4)cc2)CCN3CC(C)C)cc1", "note": "(stereo not drawn) [Compound 129, 7-[4-(2-butoxyethoxy)phenyl]-1-isobutyl-N-[4-(1,2,4-oxadiazol-3-ylmethylsulfinyl)phenyl]-2,3-dihydro-1H-benzazepine-4-carboxamide]", "values": [{"measurement": "melting point", "value": "142 to 144", "unit": "°C"}]}, {"compound": "CCCCOCCOc1ccc(-c2ccc3c(c2)C=C(C(=O)Nc2ccc(C(O)c4cccc(C)[n+]4[O-])cc2)CCN3CC(C)C)cc1", "note": "(stereo not drawn) [Compound 98, 7-[4-(2-butoxyethoxy)phenyl]-N-[4-[hydroxy(6-methyl-1-oxidopyridin-2-yl)methyl]phenyl]-1-isobutyl-2,3-dihydro-1H-1-benzazepine-4-carboxamide]", "values": [{"measurement": "melting point", "value": "114 to 116", "unit": "°C"}]}, {"compound": "CCCCOCCOc1ccc(-c2ccc3c(c2)C=C(C(=O)Nc2ccc(C(O)c4c(OCCC)ccc[n+]4[O-])cc2)CCN3)cc1", "note": "(stereo not drawn) [Compound 113, 7-[4-(2-butoxyethoxy)phenyl]-N-[4-[hydroxy(1-oxido-3-propoxypyridine-2-yl)methyl]phenyl]-2,3-dihydro-1H-1-benzazepine-4-carboxamide]", "values": [{"measurement": "melting point", "value": "148 to 149", "unit": "°C"}]}, {"compound": "CCCCOCCOc1ccc(-c2ccc3c(c2)C=C(C(=O)Nc2ccc([S+]([O-])Cc4nnc(C)c(C)n4)cc2)CCN3CC(C)C)cc1", "note": "(stereo not drawn) [Compound 37, 7-[4-(2-butoxyethoxy)phenyl]-N-[4-[(5,6-dimethyl-1,2,4-triazin-3-yl)methylsulfinyl]phenyl]-1-isobutyl-2,3-dihydro-1H-1-benzazepine-4-carboxamide]", "values": [{"measurement": "melting point", "value": "178 to 183 °C (dec.)"}]}]}
